Experimental data from ChEMBL document CHEMBL4689842, “EUbOPEN Chemogenomics Library wave 1” (2021).

Experiments:
Type in all cases: toxicity, cell-based
HEK-293T = assay: Incucyte cell viability with HEK293T; conditions: human, 10 µM, compound concentration 10 uM
Fibroblast = assay: Incucyte cell viability with human fibroblast; conditions: 10 µM, compound concentration 10 uM
U2OS = assay: Incucyte cell viability with U2OS; conditions: human, 10 µM, compound concentration 10 uM
[1] = 0 h, replicate number 1, timepoint 0 hours
[2] = 0 h, replicate number 2, timepoint 0 hours
[3] = 6 h, replicate number 1, timepoint 6 hours
[4] = 12 h, replicate number 1, timepoint 12 hours
[5] = 18 h, replicate number 1, timepoint 18 hours
[6] = 24 h, replicate number 1, timepoint 24 hours
[7] = 12 h, replicate number 2, timepoint 12 hours
[8] = 18 h, replicate number 2, timepoint 18 hours
[9] = 24 h, replicate number 2, timepoint 24 hours
[10] = 6 h, replicate number 2, timepoint 6 hours
Also: filed as whole numbers so only -1 and 0 and 1 occur.

Row | Structure (SMILES) | Growth Rate (HEK-293T; [1]) | Growth Rate (HEK-293T; [2]) | Growth Rate (HEK-293T; [3]) | Growth Rate (HEK-293T; [4]) | Growth Rate (HEK-293T; [5]) | Growth Rate (HEK-293T; [6]) | Growth Rate (Fibroblast; [1]) | Growth Rate (Fibroblast; [3]) | Growth Rate (Fibroblast; [4]) | Growth Rate (Fibroblast; [7]) | Growth Rate (Fibroblast; [5]) | Growth Rate (Fibroblast; [8]) | Growth Rate (Fibroblast; [6]) | Growth Rate (U2OS; [2]) | Growth Rate (U2OS; [10]) | Growth Rate (U2OS; [4]) | Growth Rate (U2OS; [5]) | Growth Rate (U2OS; [6]) | Growth Rate (Fibroblast; [10]) | Growth Rate (U2OS; [1]) | other results
1 | CC(C)(C(=O)O)c1ccc(C(O)CCCN2CCC(C(O)(c3ccccc3)c3ccccc3)CC2)cc1.Cl (centres undefined) [FEXOFENADINE HYDROCHLORIDE] | 1 | 0 | 1 | 1 | 1 | 1 | 0 | 0 | 0 | 1 | 0 | 1 | 0 | 0 | 0 | 1 | 1 | 1 |  |  | Growth Rate (Fibroblast; [2]): 1; Growth Rate (Fibroblast; [9]): 1; Growth Rate (U2OS; [8]): 0; Growth Rate (U2OS; [9]): 0
2 | COC1CCN(c2cccc(-c3cc(NC(C)=O)nc(-n4nc(C)cc4C)n3)n2)CC1 | 0 |  | 0 | 0 | 0 | 0 | 0 | 1 | 1 | 0 | 1 | 0 | 0 |  | 0 | 0 | 0 | 0 | 0 | 0 | 
3 | Cn1cc(CCn2cnc(-c3cnn(C)c3)c2-c2ccc(C#N)cc2)cn1 | 1 |  |  |  | 1 | 1 |  | 0 | 1 |  | 1 | 0 | 1 | 0 |  | 1 | 1 | 1 | 1 | 1 | Growth Rate (HEK-293T; [10]): 1; Growth Rate (HEK-293T; [7]): 1; Growth Rate (Fibroblast; [2]): 0; Growth Rate (Fibroblast; [9]): 0; Growth Rate (U2OS; [3]): 1; Growth Rate (U2OS; [8]): 0
4 | CC[C@@H]1CN2C(=O)N(C)c3nc(-c4ccccc4)[nH]c3C2=N1.Cl | 1 | 0 | 1 | 1 | 1 | 1 | 0 |  | 1 | 0 | 1 |  | 1 | 0 | 1 |  | 1 | 1 |  |  | Growth Rate (U2OS; [7]): 0
5 | CCCc1c(OCCCOc2ccc(OCC(=O)O)cc2)ccc(C(C)=O)c1O | 1 | 0 | 1 | 1 | 1 | 1 | 0 | 1 | 1 |  | 1 |  | 1 | 1 | 1 | 0 | 1 | 0 | 0 | 0 | Growth Rate (HEK-293T; [10]): 0; Growth Rate (Fibroblast; [2]): 1; Growth Rate (U2OS; [7]): 1; Growth Rate (U2OS; [9]): 1
6 | O=C1O[C@]2(CC[C@H](C(=O)Nc3ccn(-c4ccccc4F)n3)CC2)c2cnccc21 [MK-0557] | 0 |  | 0 | 0 | 0 | 0 | 0 | 0 | 0 | 1 | 0 | 1 | 0 | 0 | 1 | 1 | 1 | 0 |  |  | Growth Rate (Fibroblast; [9]): 1; Growth Rate (U2OS; [9]): 1
7 | COc1cc2c(CCNC(C)=O)c[nH]c2cc1Cl | 0 |  | 1 | 1 | 1 | 1 | 0 | 1 | 1 |  | 1 |  | 1 |  | 1 | 1 | 0 | 1 |  | 0 | Growth Rate (HEK-293T; [10]): 0; Growth Rate (HEK-293T; [7]): 0; Growth Rate (U2OS; [8]): 1
8 | CC[C@H](CO)Nc1nc(NCc2ccccc2)c2ncn(C(C)C)c2n1 [SELICICLIB] | 0 | 1 |  |  | 1 | 0 |  | 0 | 0 |  | 0 |  | 0 | 0 |  | 0 | 0 | 0 |  | 1 | Growth Rate (HEK-293T; [10]): 0; Growth Rate (HEK-293T; [7]): 0; Growth Rate (Fibroblast; [2]): 0; Growth Rate (U2OS; [3]): 0; Growth Rate (U2OS; [7]): 1
9 | COc1cc(OC)cc(-c2noc(N3CCN(C)C4(CCN(c5ccnc(C)c5)CC4)C3)n2)c1 |  |  | 0 |  |  | 1 |  | 0 | 1 | 0 | 1 | 0 | 0 |  | 1 | 0 | 0 | 0 | 1 | 0 | Growth Rate (HEK-293T; [7]): 1; Growth Rate (Fibroblast; [2]): 0; Growth Rate (U2OS; [3]): 0; Growth Rate (U2OS; [7]): 1; Growth Rate (U2OS; [8]): 1; Growth Rate (U2OS; [9]): 1
10 | O=c1ccn([C@@H]2O[C@H](COP(=O)([O-])OP(=O)([O-])O)[C@@H](O)[C@H]2O)c(=O)[nH]1.[Na+].[Na+] | 1 | 0 | 0 | 1 | 1 | 1 | 0 |  |  | 1 | 1 |  | 1 | 0 | 1 | 1 | 0 | 1 | 1 | 1 | Growth Rate (HEK-293T; [10]): 1; Growth Rate (U2OS; [3]): 0; Growth Rate (U2OS; [8]): 1
11 | CS(=O)(=O)NCC[C@H](NC(=O)c1cncc2c1cnn2-c1ccc(F)cc1)c1ccnc(S(C)(=O)=O)c1 [BI 9307] | 0 |  | 1 | 1 | 1 | 1 | 0 |  |  | 0 |  | 1 |  |  |  | 1 | 1 | 1 | 0 | 0 | Growth Rate (Fibroblast; [9]): 0
12 | Cc1c(NC(=O)c2cc(C(N)=O)nc3cc(F)ccc23)c(C(F)(F)F)nn1Cc1ccc(C#N)cc1 [BAY-876] |  | 0 | 0 | 0 | 0 | 0 | 0 | 0 | 0 |  | 0 |  | 0 | 0 | 0 | 0 | 0 | 0 |  | 1 | Growth Rate (U2OS; [3]): 1
